Article PMC2950128, “Protein Evolution by Molecular Tinkering: Diversification of the Nuclear Receptor Superfamily from a Ligand-Dependent Ancestor” (PLoS Biology, 2010)

Target: T1, AqNR1-LBD (Amphimedon queenslandica, UniProt B1A9Z2)
T1 construct: fusion kept for serum incubation), E. coli BL21(DE3) pLysS
Assay: lipid extraction and negative-ion ESI/MS of purified LBD
Format: binding
Conditions: co-purified from E. coli (also after complete serum); identified by mass as 18:0, chain isomer not told

T1 sequence (B1A9Z2 entry or part of it): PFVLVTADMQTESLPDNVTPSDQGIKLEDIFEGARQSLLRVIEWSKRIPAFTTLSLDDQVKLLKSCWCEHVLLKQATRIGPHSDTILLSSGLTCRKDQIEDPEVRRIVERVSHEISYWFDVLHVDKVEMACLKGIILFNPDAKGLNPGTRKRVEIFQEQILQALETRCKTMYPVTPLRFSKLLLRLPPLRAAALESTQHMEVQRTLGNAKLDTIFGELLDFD

CCCCCCCCCCCCCCCCCC(=O)O [18∶0 fatty acid]
lipid extraction and negative-ion ESI/MS of purified LBD: bound an array of bacterial free fatty acids (FAs)
